No end group written: not given here.
Tests used:
Assay type in all cases: cell-based
HMEC-1 cells = test: Attachment and spreading of HMEC-1 cells on IIICS; details: plated on IIICS; 30 μM peptides, 125 μg/ml SST0001, 10 μg/ml MMP9 blocking antibody
Procedure: FIGS. 8A-H. HPSE mediated the Sdc1-coupled VEGFR2 complex in endothelial cells induces angiogenesis. (FIG. 8A) Lysates from HPSE^low, HPSE^high and HMEC-1 cells are probed by immunoblotting for expression of HPSE. (FIG. 8B) HMEC-1 cells were seeded at equal density and grown in serum-free media for 24 hr in the absence or presence of 125 μg/ml of the HPSE inhibitor SST0001. After 24 hr, conditioned media were harvested, and the level of shed Sdc1 in the conditioned medium from each condition was determined by immunoblotting. (FIG. 8C) HMEC-1 cell lysate was incubated overnight with glutathione beads coated with GST or GST-S1ED. Capture of VLA-4 or VEGFR2 was detected by immunoblotting. (FIG. 8D) HMEC-1 cells were plated on IIICS for 3 hr and double stained for VLA-4 and Sdc1, VEGFR2 and Sdc1, or VLA-4 and VEGFR2. (FIG. 8E) HMEC-1 cells were treated with DMSO, VLA-4 blocking antibody P1H4, β1-integrin blocking antibody mAb13, 10 μg/ml MMP9 blocking antibody, 125 μg/ml HPSE inhibitor SST0001, Vandetanib, VEGFR2 blocking antibody, 30 μM S1ED^210-233 or 30 μM S1ED^214-240 and then plated on IIICS. Images were taken from random field with 200× magnification for counting attached and spread cells. (FIG. 8F) HMEC-1 cells were plated on IIICS in the presence of 10 μM of S1ED^210-236, S1ED^210-233, S1ED^215-240, and S1ED^214-240. […]

[1] = test system: P3x63Ag8 mouse myeloma cells; test: Adhesion of P3x63Ag8 myeloma cells to FN; details: 30 uM peptide, 2.5 hr
Procedure: FIG. 7A-B. S1ED^214-236, specific for VEGFR2 coupling to VLA-4, blocks myeloma cell invasion but not adhesion. (FIG. 7A) P3x63Ag8 mouse myeloma cells are plating on the VLA-4 ligand FN in the presence or absence of 30 uM S1ED^210-233 (SEQ ID No: 4) or S1ED^214-236 (SEQ ID No: 7) for 2.5 hr. (FIG. 7B) P3x63Ag8 myeloma cells are plated on FN-coated filters in the presence of HPSE inhibitor OGT2115, VLA-4 blocking antibody P1H4, VEGFR2 inhibitor Vandetanib or S1ED^210-233 or S1ED^214-236 and allowed to migrate through the filter for 16 hr. Small black dots are the pores in the filter.
Nitrocellulose-coated slides were coated for 2 hr at 37° C. with 40 μg/ml FN (kindly provided by Dr. Donna Peters, University of Wisconsin-Madison) or 5 μg/ml recombinant VCAM-1/Fc chimera (R&D Systems) in calcium and magnesium-free PBS (CMF-PBS; 135 mM NaCl, 2.7 mM KCl, 10.2 mM Na2HPO4-7H20 and 1.75 mM KH2PO4, pH7.4). Slides were blocked for 1 hr at 37° C. with RPMI 1640 containing 1% heat-denatured BSA (plating medium). Cells in plating medium were allowed to attach and spread for 2.5 hr at 37° C. Slides were fixed in 4% EM grade paraformaldehyde (Electron Microscopy Sciences) in CMF-PBS and labeled for 30 min in 0.13 μM rhodamine phalloidin (Invitrogen) in CMF-PBS. Coverslips were mounted in non-fluorescing mounting medium (Immumount; Thermo Shandon) and allowed to dry. […]

VEGFR2 = target: T1, VEGFR2 (Homo sapiens, UniProt P35968); test: VEGFR2 activation (pY1054/1059 immunoblot) in HPSE^low CAG cells; details: 0.3 μM peptide, 2.5 h
T1 construct: endogenous in cells; host or cells: CAG human myeloma cells (HPSE^low = empty vector; HPSE^high = human HPSE cDNA)
T1 sequence (P35968 20-1356): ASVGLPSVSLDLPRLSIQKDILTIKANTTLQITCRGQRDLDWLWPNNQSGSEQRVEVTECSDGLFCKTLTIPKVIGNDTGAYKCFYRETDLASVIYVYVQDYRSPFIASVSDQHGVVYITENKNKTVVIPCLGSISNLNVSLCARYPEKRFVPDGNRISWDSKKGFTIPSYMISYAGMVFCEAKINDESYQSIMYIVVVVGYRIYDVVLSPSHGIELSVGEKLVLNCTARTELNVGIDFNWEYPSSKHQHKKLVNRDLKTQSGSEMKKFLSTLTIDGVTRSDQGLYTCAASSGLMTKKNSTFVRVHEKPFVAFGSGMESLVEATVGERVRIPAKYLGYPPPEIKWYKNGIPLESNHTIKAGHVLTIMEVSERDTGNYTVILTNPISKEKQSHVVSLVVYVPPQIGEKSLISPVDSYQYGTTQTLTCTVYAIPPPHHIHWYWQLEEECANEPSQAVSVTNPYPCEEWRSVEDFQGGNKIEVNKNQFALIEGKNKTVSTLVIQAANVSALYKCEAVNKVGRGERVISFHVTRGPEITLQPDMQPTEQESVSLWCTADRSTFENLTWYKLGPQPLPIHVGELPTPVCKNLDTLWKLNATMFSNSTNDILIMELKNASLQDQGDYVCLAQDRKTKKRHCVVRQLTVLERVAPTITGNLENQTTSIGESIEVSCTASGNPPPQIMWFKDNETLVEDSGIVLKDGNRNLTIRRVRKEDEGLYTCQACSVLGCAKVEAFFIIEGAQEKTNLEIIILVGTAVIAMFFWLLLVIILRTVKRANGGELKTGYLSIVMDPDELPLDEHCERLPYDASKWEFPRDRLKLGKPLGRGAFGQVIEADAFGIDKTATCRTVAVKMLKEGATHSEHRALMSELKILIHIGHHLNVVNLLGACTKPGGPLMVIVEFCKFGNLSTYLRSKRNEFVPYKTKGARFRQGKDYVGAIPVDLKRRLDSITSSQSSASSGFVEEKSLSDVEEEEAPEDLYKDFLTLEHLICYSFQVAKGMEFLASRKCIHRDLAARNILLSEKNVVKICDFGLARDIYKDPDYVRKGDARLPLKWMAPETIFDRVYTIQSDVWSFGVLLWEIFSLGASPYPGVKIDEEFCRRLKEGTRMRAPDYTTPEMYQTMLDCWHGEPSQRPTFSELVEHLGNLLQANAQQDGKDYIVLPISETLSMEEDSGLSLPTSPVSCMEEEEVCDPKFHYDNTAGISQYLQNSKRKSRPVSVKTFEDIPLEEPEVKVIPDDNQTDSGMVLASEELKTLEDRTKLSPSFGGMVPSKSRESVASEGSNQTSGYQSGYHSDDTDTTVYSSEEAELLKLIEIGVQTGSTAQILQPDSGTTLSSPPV
Procedure: FIGS. 4A-C. HPSE expression leads to activation of VEGFR2 when α4-integrin engages ligand. (FIG. 4A) HPSE^low and HPSE^high cells treated with or without 1 μM Vandetanib, 20 ng/ml VEGF, or 20 μg/ml VEGFR2 blocking antibody are plated on VCAM-1 to observe cell spreading (Bar=50 μm); (FIG. 4B) HPSE^high cells plated on FN were treated with MMP-9 blocking antibody or 1 μM Vandetanib in the absence or presence of 0.3 μM S1ED^210-236 (Bar=50 μm); (FIG. 4C) HPSE^low cells were kept in suspension or were seeded on FN in the absence or presence of 0.3 μM S1ED^210-236 for 2.5 h. Cell lysates were immunoblotted with antibodies against pY1054/1059 in VEGFR2 as a marker of VEGFR2 activation. Actin is shown as a loading control.
The inventors next questioned whether VEGFR2 is upstream (e.g., responsible for shedding) or downstream (e.g., a target of the shed Sdc1) of Sdc1 shedding by testing whether or not Sdc1 mimetic peptide could rescue Vandetinib-blocked spreading. HPSE^high cell spreading on FN was inhibited using either anti-MMP9 blocking antibody or Vandetanib in the presence or absence of S1ED^210-236. […] VEGFR2 activation was assessed by measuring autophosphorylation at Tyr1054/1059 in its kinase domain (Lamalice et al., 2007).

Substance | VLA-4 dependent spreading of HMEC-1 cells (HMEC-1 cells) | adhesion of P3X cells to FN [1] | VEGFR2 phosphorylation at Tyr1054/1059 (VEGFR2; HPSE^low cells in suspension) | VEGFR2 phosphorylation at Tyr1054/1059 (VEGFR2; HPSE^low cells plated on FN)
S1ED^210-233: syndecan-1 ectodomain peptide, residues 210-233 (SEQ ID NO: 4) (DFTFETSGENTAVVAVEPDRRNQS) | prevented | blocks the adhesion of the myeloma cells to FN |  | 
DFTFETSGENTAVVAVEPDRRNQSPVD [S1ED^210-236] |  |  | no alteration of VEGFR2 phosphorylation | causes VEGFR2 phosphorylation in HPSE^low cells plated on FN
